Publication PMC7595621, “Quorum sensing N-Acyl homoserine lactones are a new class of anti-schistosomal” (PLoS Neglected Tropical Diseases, 2020)
Like-named read-outs stand apart in the source and are kept apart here.

Assays:
[1] = test system: adult S. mansoni worm pairs; test: Screening of adult S. mansoni blood flukes (7-week worms), WHO-TDR motility scoring; type: cell-based, Schistosoma mansoni; settings: for Selectivity index, adult worm female: HepG2 CC50 / adult female EC50; for Selectivity index, adult worm male: HepG2 CC50 / adult male EC50; for EC50: Schistosoma mansoni
Description: Adult S. mansoni parasites were recovered by hepatic portal vein perfusion from TO outbred mice (HsdOla:TO, Tuck-Ordinary, Envigo, UK) that were percutaneously infected seven weeks earlier with 180 cercariae. Three adult worm pairs per well, in duplicate, were transferred into 48 well plates (Fisher Scientific, Loughborough, UK) and cultured at 37 °C in an atmosphere containing 5% CO2 in DMEM (Gibco, Paisley, UK) containing 10% v/v HEPES, 10% v/v Foetal Bovine Serum (FBS), 0.7% v/v 200 mM L-Glutamine and 1X v/v penicillin-streptomycin. Worms were dosed with test compounds at 20 μM, 10 μM, 5 μM, 2.5 μM, 1.25 μM and 0.625 μM (in 0.2% DMSO) for 72 hr. Adult worms were scored manually at 72 hr using the WHO-TDR metric scoring system as described previously. Dose response curves and EC50 values were obtained by non-linear regression, after log transformation of concentrations and data normalization using GraphPad Prism 7.02. At 72 hr, the medium from each well was also collected, centrifuged at 350 x g for 2 min. Afterwards, the supernatant was removed, and the remaining egg pellet re-suspended in 10% v/v formalin. Eggs that were oval and contained a fully formed lateral spine were subsequently counted.
Fig 3 Adult schistosome motility and egg production are differentially affected by the nine N-acyl homoserine lactones. […] Parasite motility was evaluated for each sex and scored using the WHO-TDR scoring system (0 = Dead parasite, 4 = Normal/Healthy movement). B) Culture media were collected from some adult co-cultures at 72 hrs and eggs present in the media were counted. p values are indicated as follows: * <0.05, ** <0.01, *** <0.001.
Initially, these screens were conducted at 20 μM; any compounds that scored a 1 or 0 for motility at this primary concentration were further titrated until no further effect was observed. […] Similar to the schistosomula assays, the differences observed in adult parasite motility when treated with the (R)- and (S)- enantiomers of Compound 1 were striking. […] Estimated EC50s for male and female parasites for these two enantiomers were determined (Table 2), with Compound 5 ((R)- enantiomer) having greater activity than Compound 6 ((S)- enantiomer).

HepG2 cells = test: Cell cytotoxicity assay (MTT); type: cell-based, human; settings: 24 hr
Description: The cytotoxicity of each compound was assessed on human HepG2 cells as described previously [17]. Briefly, 2 x 10^4 cells/well were seeded in black walled 96-well microtiter plates (Fisher Scientific, Loughborough, UK) and incubated for 24 hr at 37°C in a humidified atmosphere containing 5% CO2. […] Following a further incubation for 24 hr, the MTT assay was performed as previously described [17, 27]. Dose response curves were obtained by non-linear regression, after log transformation of concentrations and data normalization using GraphPad Prism 7.02.

[2] = 7-week worms, 72 hr, motility, 95% confidence interval, read-out: ADULT WORM EC50 Female
[3] = 7-week worms, 72 hr, motility, 95% confidence interval, read-out: ADULT WORM EC50 Male

Row | Compound | Selectivity index, adult worm female [1] | Selectivity index, adult worm male [1] | EC50 [1, 2] | EC50 [1, 3] | fold increase in HepG2 cytotoxicity in comparison to compound 1 (HepG2 cells) | significant reduction in adult worm motility observed down to ([1]; 72 hr) | EC50 ([1]; sex not stated (abstract), read-out: adult worms EC50)
1 | O=C(CBr)NC1CCOC1=O (centres unmarked) [Compound 1, 2-bromo-N-(2-oxotetrahydrofuran-3-yl)acetamide] | 5.2 | 5.3 | 8.3 µM | 8.2 µM | – | – | –
2 | O=C(CBr)NC1CCSC1=O (centres unmarked) [Compound 3, 2-bromo-N-(2-oxotetrahydrothiophen-3-yl)acetamide] | 4.8 | 4.5 | 3.9 µM | 4.2 µM | 2.3 fold | 5 µM | 4.8 µM
